# Reference: PubChem BioAssay (NCI)
#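 96-well plates; 48 h exposure; 5 concentrations. Endpoints by linear interpolation between flanking doses. Not reached: highest tested concentration assigned. At the TGI there is no net growth.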
# Key:
# Test in all cases: NCI-60 cell line screen, 48 h
# IGROV1 ovarian = tested on: IGROV1 ovarian
# HOP-92 NSCLC = tested on: HOP-92 NSCLC
# MOLT-4 leukemia = tested on: MOLT-4 leukemia
# K-562 leukemia = tested on: K-562 leukemia
# DMS 273 small cell lung = tested on: DMS 273 small cell lung
# SR leukemia = tested on: SR leukemia
# RXF 393 renal = tested on: RXF 393 renal
# HT29 colon = tested on: HT29 colon
# SK-OV-3 ovarian = tested on: SK-OV-3 ovarian
# OVCAR-4 ovarian = tested on: OVCAR-4 ovarian
# SK-MEL-2 melanoma = tested on: SK-MEL-2 melanoma
# XF 498 CNS = tested on: XF 498 CNS
# SW-620 colon = tested on: SW-620 colon
# M19-MEL melanoma = tested on: M19-MEL melanoma
# SF-295 CNS = tested on: SF-295 CNS
# NCI-H522 lung = tested on: NCI-H522 lung
# CAKI-1 renal = tested on: CAKI-1 renal
# UO-31 renal = tested on: UO-31 renal
# OVCAR-3 ovarian = tested on: OVCAR-3 ovarian
# NCI-H226 lung = tested on: NCI-H226 lung
# ACHN renal = tested on: ACHN renal
# DLD-1 colon = tested on: DLD-1 colon
# OVCAR-5 ovarian = tested on: OVCAR-5 ovarian
# SN12C renal = tested on: SN12C renal
# OVCAR-8 ovarian = tested on: OVCAR-8 ovarian
# EKVX NSCLC = tested on: EKVX NSCLC
# HL-60(TB) leukemia = tested on: HL-60(TB) leukemia
# SNB-75 CNS = tested on: SNB-75 CNS
# LXFL 529 NSCLC = tested on: LXFL 529 NSCLC
# UACC-257 melanoma = tested on: UACC-257 melanoma
# SNB-78 CNS = tested on: SNB-78 CNS
# CCRF-CEM leukemia = tested on: CCRF-CEM leukemia
# A498 renal = tested on: A498 renal
# 786-0 renal = tested on: 786-0 renal
# SNB-19 CNS = tested on: SNB-19 CNS
# KM12 colon = tested on: KM12 colon
# A549 NSCLC = tested on: A549 NSCLC
# TK-10 renal = tested on: TK-10 renal
# SK-MEL-5 melanoma = tested on: SK-MEL-5 melanoma
# SF-539 CNS = tested on: SF-539 CNS
# HCT-116 colon = tested on: HCT-116 colon
# NCI-H23 lung = tested on: NCI-H23 lung
# DMS 114 small cell lung = tested on: DMS 114 small cell lung
# M14 melanoma = tested on: M14 melanoma
# NCI-H460 lung = tested on: NCI-H460 lung
# SK-MEL-28 melanoma = tested on: SK-MEL-28 melanoma
# UACC-62 melanoma = tested on: UACC-62 melanoma
# KM20L2 colon = tested on: KM20L2 colon
# U251 CNS = tested on: U251 CNS
# HOP-62 NSCLC = tested on: HOP-62 NSCLC
# SF-268 CNS = tested on: SF-268 CNS
# MALME-3M melanoma = tested on: MALME-3M melanoma
# COLO 205 colon = tested on: COLO 205 colon
# HCC-2998 colon = tested on: HCC-2998 colon
# RPMI-8226 leukemia = tested on: RPMI-8226 leukemia
# LOX IMVI melanoma = tested on: LOX IMVI melanoma
# HCT-15 colon = tested on: HCT-15 colon
smiles,measurement,setting,value
O=C1c2cc3c(cc2[C@@H]2NC4CCCC14O2)OCO3 (stereo partly drawn),TGI,IGROV1 ovarian,> 100 µM
same,TGI,HOP-92 NSCLC,> 100 µM
same,TGI,MOLT-4 leukemia,> 100 µM
same,TGI,K-562 leukemia,> 100 µM
same,TGI,DMS 273 small cell lung,> 100 µM
same,TGI,SR leukemia,> 100 µM
same,TGI,RXF 393 renal,> 100 µM
same,TGI,HT29 colon,> 100 µM
same,TGI,SK-OV-3 ovarian,> 100 µM
same,TGI,OVCAR-4 ovarian,> 100 µM
same,TGI,SK-MEL-2 melanoma,> 100 µM
same,TGI,XF 498 CNS,> 100 µM
same,TGI,SW-620 colon,> 100 µM
same,TGI,M19-MEL melanoma,> 100 µM
same,TGI,SF-295 CNS,> 100 µM
same,TGI,NCI-H522 lung,> 100 µM
same,TGI,CAKI-1 renal,> 100 µM
same,TGI,UO-31 renal,> 100 µM
same,TGI,OVCAR-3 ovarian,> 100 µM
same,TGI,NCI-H226 lung,> 100 µM
same,TGI,ACHN renal,> 100 µM
same,TGI,DLD-1 colon,> 100 µM
same,TGI,OVCAR-5 ovarian,> 100 µM
same,TGI,SN12C renal,> 100 µM
same,TGI,OVCAR-8 ovarian,> 100 µM
same,TGI,EKVX NSCLC,> 100 µM
same,TGI,HL-60(TB) leukemia,> 100 µM
same,TGI,SNB-75 CNS,> 100 µM
same,TGI,LXFL 529 NSCLC,> 100 µM
same,TGI,UACC-257 melanoma,> 100 µM
same,TGI,SNB-78 CNS,> 100 µM
same,TGI,CCRF-CEM leukemia,> 100 µM
same,TGI,A498 renal,> 100 µM
same,TGI,786-0 renal,> 100 µM
same,TGI,SNB-19 CNS,> 100 µM
same,TGI,KM12 colon,> 100 µM
same,TGI,A549 NSCLC,> 100 µM
same,TGI,TK-10 renal,> 100 µM
same,TGI,SK-MEL-5 melanoma,> 100 µM
same,TGI,SF-539 CNS,> 100 µM
same,TGI,HCT-116 colon,> 100 µM
same,TGI,NCI-H23 lung,> 100 µM
same,TGI,DMS 114 small cell lung,> 100 µM
same,TGI,M14 melanoma,> 100 µM
same,TGI,NCI-H460 lung,> 100 µM
same,TGI,SK-MEL-28 melanoma,> 100 µM
same,TGI,UACC-62 melanoma,> 100 µM
same,TGI,KM20L2 colon,> 100 µM
same,TGI,U251 CNS,> 100 µM
same,TGI,HOP-62 NSCLC,> 100 µM
same,TGI,SF-268 CNS,> 100 µM
CN(N=O)C(=O)N(N)CCCCC(NC(=O)OCc1ccccc1)C(=O)OCc1ccccc1 (stereo not drawn),TGI,IGROV1 ovarian,> 100 µM
same,TGI,HOP-92 NSCLC,34.5 µM
same,TGI,MOLT-4 leukemia,52.6 µM
same,TGI,K-562 leukemia,> 100 µM
same,TGI,DMS 273 small cell lung,> 100 µM
same,TGI,RXF 393 renal,51.6 µM
same,TGI,HT29 colon,> 100 µM
same,TGI,SK-OV-3 ovarian,> 100 µM
same,TGI,OVCAR-4 ovarian,> 100 µM
same,TGI,SK-MEL-2 melanoma,> 100 µM
same,TGI,XF 498 CNS,32.2 µM
same,TGI,SW-620 colon,> 100 µM
same,TGI,M19-MEL melanoma,> 100 µM
same,TGI,MALME-3M melanoma,95.5 µM
same,TGI,SF-295 CNS,> 100 µM
same,TGI,NCI-H522 lung,24.9 µM
same,TGI,CAKI-1 renal,72.3 µM
same,TGI,UO-31 renal,33.8 µM
same,TGI,COLO 205 colon,45.6 µM
same,TGI,OVCAR-3 ovarian,57 µM
same,TGI,NCI-H226 lung,96.2 µM
same,TGI,ACHN renal,34.2 µM
same,TGI,DLD-1 colon,> 100 µM
same,TGI,OVCAR-5 ovarian,> 100 µM
same,TGI,SN12C renal,46.3 µM
same,TGI,OVCAR-8 ovarian,> 100 µM
same,TGI,HCC-2998 colon,63.4 µM
same,TGI,EKVX NSCLC,> 100 µM
same,TGI,HL-60(TB) leukemia,16.2 µM
same,TGI,SNB-75 CNS,62.8 µM
same,TGI,LXFL 529 NSCLC,> 100 µM
same,TGI,UACC-257 melanoma,51.7 µM
same,TGI,SNB-78 CNS,85.9 µM
same,TGI,CCRF-CEM leukemia,38.5 µM
same,TGI,A498 renal,> 100 µM
same,TGI,RPMI-8226 leukemia,> 100 µM
same,TGI,786-0 renal,66.5 µM
same,TGI,SNB-19 CNS,> 100 µM
same,TGI,KM12 colon,> 100 µM
same,TGI,A549 NSCLC,> 100 µM
same,TGI,TK-10 renal,> 100 µM
same,TGI,SK-MEL-5 melanoma,> 100 µM
same,TGI,SF-539 CNS,35.2 µM
same,TGI,HCT-116 colon,> 100 µM
same,TGI,NCI-H23 lung,38.8 µM
same,TGI,DMS 114 small cell lung,> 100 µM
same,TGI,LOX IMVI melanoma,45.8 µM
same,TGI,M14 melanoma,70.7 µM
same,TGI,NCI-H460 lung,> 100 µM
same,TGI,SK-MEL-28 melanoma,> 100 µM
same,TGI,UACC-62 melanoma,44.7 µM
same,TGI,KM20L2 colon,> 100 µM
same,TGI,HCT-15 colon,> 100 µM
same,TGI,U251 CNS,> 100 µM
same,TGI,HOP-62 NSCLC,34.2 µM
COc1cc(OC)c(C#N)c(OC)c1C,TGI,HOP-92 NSCLC,> 100 µM
same,TGI,MOLT-4 leukemia,> 100 µM
same,TGI,K-562 leukemia,> 100 µM
same,TGI,DMS 273 small cell lung,> 100 µM
same,TGI,SR leukemia,> 100 µM
same,TGI,RXF 393 renal,> 100 µM
same,TGI,HT29 colon,> 100 µM
same,TGI,SK-OV-3 ovarian,> 100 µM
same,TGI,OVCAR-4 ovarian,> 100 µM
same,TGI,SK-MEL-2 melanoma,> 100 µM
same,TGI,XF 498 CNS,> 100 µM
same,TGI,SW-620 colon,> 100 µM
same,TGI,M19-MEL melanoma,> 100 µM
same,TGI,MALME-3M melanoma,> 100 µM
same,TGI,SF-295 CNS,> 100 µM
same,TGI,CAKI-1 renal,> 100 µM
same,TGI,UO-31 renal,> 100 µM
same,TGI,NCI-H226 lung,> 100 µM
same,TGI,ACHN renal,> 100 µM
same,TGI,DLD-1 colon,> 100 µM
same,TGI,OVCAR-5 ovarian,> 100 µM
same,TGI,SN12C renal,> 100 µM
same,TGI,OVCAR-8 ovarian,> 100 µM
same,TGI,EKVX NSCLC,> 100 µM
same,TGI,HL-60(TB) leukemia,> 100 µM
same,TGI,LXFL 529 NSCLC,> 100 µM
same,TGI,UACC-257 melanoma,> 100 µM
same,TGI,SNB-78 CNS,> 100 µM
same,TGI,CCRF-CEM leukemia,> 100 µM
same,TGI,A498 renal,> 100 µM
same,TGI,786-0 renal,> 100 µM
same,TGI,SNB-19 CNS,> 100 µM
same,TGI,KM12 colon,> 100 µM
same,TGI,A549 NSCLC,> 100 µM
same,TGI,TK-10 renal,> 100 µM
same,TGI,SK-MEL-5 melanoma,> 100 µM
same,TGI,SF-539 CNS,> 100 µM
same,TGI,NCI-H23 lung,> 100 µM
same,TGI,DMS 114 small cell lung,> 100 µM
same,TGI,LOX IMVI melanoma,> 100 µM
same,TGI,NCI-H460 lung,> 100 µM
same,TGI,SK-MEL-28 melanoma,> 100 µM
same,TGI,UACC-62 melanoma,> 100 µM
same,TGI,KM20L2 colon,> 100 µM
same,TGI,U251 CNS,> 100 µM
same,TGI,HOP-62 NSCLC,> 100 µM
same,TGI,SF-268 CNS,> 100 µM
